{
  "source": "paper PMC4211880",
  "about": "“α-Mangostin Disrupts the Development of Streptococcus mutans Biofilms and Facilitates Its Mechanical Removal” (PLoS ONE, 2014)",
  "key": {"GtfB": {"molecular_target": "T1, GtfB (Streptococcus mutans, UniProt P08987)", "T1 construct": "secreted enzyme from culture supernatant of S. milleri KSB8 carrying gtfB of S. mutans GS-5; purified to near homogeneity by hydroxyapatite chromatography", "T1 sequence (P08987 35-1476)": "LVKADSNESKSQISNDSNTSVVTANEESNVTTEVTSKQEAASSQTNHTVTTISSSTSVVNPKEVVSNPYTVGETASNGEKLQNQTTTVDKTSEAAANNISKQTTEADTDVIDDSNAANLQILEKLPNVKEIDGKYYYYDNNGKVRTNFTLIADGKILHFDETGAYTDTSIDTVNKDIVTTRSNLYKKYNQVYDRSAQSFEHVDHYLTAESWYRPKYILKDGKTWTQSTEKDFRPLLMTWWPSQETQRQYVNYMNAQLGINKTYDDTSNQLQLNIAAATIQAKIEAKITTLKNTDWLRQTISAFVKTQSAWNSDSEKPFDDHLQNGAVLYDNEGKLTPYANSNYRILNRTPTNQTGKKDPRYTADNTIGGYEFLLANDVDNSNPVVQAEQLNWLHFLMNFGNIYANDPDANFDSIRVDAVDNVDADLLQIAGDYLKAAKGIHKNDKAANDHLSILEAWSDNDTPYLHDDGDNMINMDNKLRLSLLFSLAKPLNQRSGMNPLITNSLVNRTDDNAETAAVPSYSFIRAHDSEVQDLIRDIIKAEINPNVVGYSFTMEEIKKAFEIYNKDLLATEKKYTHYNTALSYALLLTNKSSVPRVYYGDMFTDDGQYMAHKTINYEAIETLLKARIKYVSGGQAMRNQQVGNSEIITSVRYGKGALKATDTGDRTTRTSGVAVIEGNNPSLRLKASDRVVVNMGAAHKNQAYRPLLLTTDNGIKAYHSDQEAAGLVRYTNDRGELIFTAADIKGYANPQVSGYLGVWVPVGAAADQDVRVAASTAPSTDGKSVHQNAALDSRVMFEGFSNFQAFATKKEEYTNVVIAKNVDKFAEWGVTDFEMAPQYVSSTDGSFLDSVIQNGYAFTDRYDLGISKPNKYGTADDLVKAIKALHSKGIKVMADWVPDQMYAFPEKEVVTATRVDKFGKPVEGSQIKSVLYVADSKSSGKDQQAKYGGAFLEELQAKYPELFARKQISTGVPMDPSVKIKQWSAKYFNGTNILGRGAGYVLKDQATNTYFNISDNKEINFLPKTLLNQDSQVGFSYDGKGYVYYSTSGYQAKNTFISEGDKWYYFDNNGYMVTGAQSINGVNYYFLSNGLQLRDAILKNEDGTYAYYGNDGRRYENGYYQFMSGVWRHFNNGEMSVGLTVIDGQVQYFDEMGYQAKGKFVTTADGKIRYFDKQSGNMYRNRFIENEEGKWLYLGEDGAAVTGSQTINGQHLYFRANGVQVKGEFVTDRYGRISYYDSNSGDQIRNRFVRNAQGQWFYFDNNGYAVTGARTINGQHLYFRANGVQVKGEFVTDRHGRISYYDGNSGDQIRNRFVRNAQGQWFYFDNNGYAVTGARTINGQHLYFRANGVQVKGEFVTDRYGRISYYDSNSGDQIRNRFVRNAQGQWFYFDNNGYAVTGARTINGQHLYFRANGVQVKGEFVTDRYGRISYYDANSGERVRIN", "experiment": "incorporation of […]-glucose from labelled sucrose into glucans, scintillation counting", "assay_type": "biochemical"}, "GtfC": {"molecular_target": "T2, GtfC (Streptococcus mutans, UniProt P13470)", "T2 construct": "secreted enzyme from culture supernatant of S. mutans WHB 410 (expresses gtfC only); purified to near homogeneity by hydroxyapatite chromatography", "T2 sequence (P13470 35-1455)": "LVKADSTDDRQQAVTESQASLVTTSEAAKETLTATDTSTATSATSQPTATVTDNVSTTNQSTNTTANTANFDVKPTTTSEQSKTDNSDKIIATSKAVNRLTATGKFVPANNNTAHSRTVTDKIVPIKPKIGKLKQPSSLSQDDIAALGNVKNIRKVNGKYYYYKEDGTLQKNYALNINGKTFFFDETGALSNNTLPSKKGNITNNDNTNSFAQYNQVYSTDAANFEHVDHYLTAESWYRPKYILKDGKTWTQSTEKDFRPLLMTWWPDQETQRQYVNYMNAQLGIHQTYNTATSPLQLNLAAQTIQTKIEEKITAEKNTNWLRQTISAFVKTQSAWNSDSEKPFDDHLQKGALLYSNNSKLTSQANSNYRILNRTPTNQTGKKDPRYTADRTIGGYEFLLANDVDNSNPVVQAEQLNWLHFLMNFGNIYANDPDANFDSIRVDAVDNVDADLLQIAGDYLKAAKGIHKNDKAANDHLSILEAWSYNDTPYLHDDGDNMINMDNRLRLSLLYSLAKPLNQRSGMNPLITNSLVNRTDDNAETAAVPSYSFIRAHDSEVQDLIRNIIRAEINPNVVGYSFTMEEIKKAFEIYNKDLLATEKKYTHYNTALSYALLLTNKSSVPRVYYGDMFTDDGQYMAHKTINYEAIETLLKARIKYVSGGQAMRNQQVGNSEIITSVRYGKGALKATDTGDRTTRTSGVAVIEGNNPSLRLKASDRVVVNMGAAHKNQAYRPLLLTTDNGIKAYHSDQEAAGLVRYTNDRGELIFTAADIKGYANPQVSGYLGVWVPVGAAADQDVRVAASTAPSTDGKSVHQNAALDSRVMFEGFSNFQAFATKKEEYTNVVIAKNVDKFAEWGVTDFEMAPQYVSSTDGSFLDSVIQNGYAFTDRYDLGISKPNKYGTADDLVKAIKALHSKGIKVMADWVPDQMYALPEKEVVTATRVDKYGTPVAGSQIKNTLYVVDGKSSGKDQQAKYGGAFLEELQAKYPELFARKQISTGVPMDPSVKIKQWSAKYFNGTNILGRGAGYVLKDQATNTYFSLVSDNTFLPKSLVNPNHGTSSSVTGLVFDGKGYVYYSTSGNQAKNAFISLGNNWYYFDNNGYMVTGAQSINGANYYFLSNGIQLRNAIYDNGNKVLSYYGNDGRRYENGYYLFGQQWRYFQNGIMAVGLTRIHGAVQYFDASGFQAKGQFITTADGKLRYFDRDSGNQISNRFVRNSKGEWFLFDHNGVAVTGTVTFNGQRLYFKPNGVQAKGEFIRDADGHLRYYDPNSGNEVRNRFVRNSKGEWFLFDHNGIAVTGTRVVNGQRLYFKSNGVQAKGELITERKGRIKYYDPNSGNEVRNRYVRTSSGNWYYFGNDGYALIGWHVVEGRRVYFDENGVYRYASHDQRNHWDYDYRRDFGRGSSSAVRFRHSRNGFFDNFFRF", "experiment": "incorporation of […]-glucose from labelled sucrose into glucans, scintillation counting", "assay_type": "biochemical"}},
  "data": [
    {"smiles": "COc1c(O)cc2oc3cc(O)c(CC=C(C)C)c(O)c3c(=O)c2c1CC=C(C)C", "note": "[αMG, α-mangostin]", "values": [
      {"measurement": "inhibition at 150 µM", "setting": "GtfB", "result": "> 70", "unit": "%"},
      {"measurement": "inhibition at 150 µM", "setting": "GtfC", "result": "> 70", "unit": "%"}
    ]}
  ]
}
